One assay addresses T1, human CK1 delta (Homo sapiens, UniProt P48730).
T1 construct: purchased Invitrogen Corporation PV3665
Description: FRET fluorescence test (Z'Lyte kinase assay Kit), CK1 delta. The assay is classed as biochemical. The following applies: peptide substrate SER/THR 11 2 μM, ATP 4 times the KM. The text has this:
The capacity of the compounds of the invention to inhibit the phosphorylation of casein by casein kinase 1 epsilon and delta may be evaluated using a FRET (“Fluorescence Resonance Energy Transfer) fluorescence test with the aid of the “Z′Lyte™ kinase assay Kit” (reference PV3670; Invitrogen Corporation™) according to the manufacturer's instructions.
The casein kinases 1 used are obtained from Invitrogen Corporation (human CK1 epsilon PV3500 and human CK1 delta PV3665).
A peptide substrate, labeled at both ends with a fluorophore donor group (coumarin) and a fluorophore acceptor group ([…]) constituting a FRET system is phosphorylated in the presence of ATP by casein kinase 1 epsilon or delta in the presence increasing concentrations of compounds of the invention. The mixture is treated with a site-specific protease that specifically cleaves the peptide substrate to form two fluorescent fragments having a large fluorescence emission ratio.
The fluorescence observed is thus related to the capacity of the products of the invention to inhibit the phosphorylation of the peptide substrate by casein kinase 1 epsilon or casein kinase 1 delta.
The compounds of the invention are dissolved at different concentrations starting with a 10 mM stock solution in DMSO diluted in a buffer containing 50 mM HEPS, pH 7.5, 1 m MEGTA, 0.01% Brij-35, 10 mM MgCl for casein kinase 1 epsilon and supplemented with Trizma Base (50 mM), pH 8.0, and NaN3 (0.01% final) for casein kinase 1 delta.
The phosphorylation of the peptide substrate SER/THR 11 obtained from Invitrogen Corporation™ is performed at a final concentration of 2 μM. The ATP concentration is 4 times the KM, this value being 2 μM for casein kinase 1 epsilon and 4 μM for casein kinase 1 delta.
The emitted fluorescence is measured at wavelengths of 445 and 520 nm (excitation at 400 nm).

Assay [1] concerns Mper1-luc Rat-1 (P2C4) fibroblasts. Description: Circadian cell assay (mPer1-luciferase reporter, period prolongation). The assay is classed as cell-based. To be noted: effective concentration that induced a 1-hour prolongation of the circadian period, interpolated from hyperbolic curve. As for the experimental part: Experimental Protocols for Circadian Cell Assay
Mper1-luc Rat-1 (P2C4) fibroblast cultures were prepared by dividing the cultures every 3-4 days (approximately 10-20% of confluence) on 150 cm^2 degassed polystyrene tissue culture flasks (Falcon® #35-5001) and maintained in growth medium [EMEM (Cellgro #10-010-CV); 10% fetal bovine serum (FBS; Gibco #16000-044); and 50 I.U./ml of penicillin-streptomycin (Cellgro #30-001-CI)] at 37° C. and under 5% CO2.
Cells obtained from Rat-1 fibroblast cultures at 30-50% of confluence as described above were co-transfected with vectors containing the selection marker for resistance to zeocin for a stable transfection and a luciferase reporter gene controlled by the mPer-1 promoter. After 24 to 48 hours, the cultures were divided on 96-well plates and maintained in growth medium supplemented with 50-100 μg/ml of zeocin (Invitrogen® #45-0430) for 10-14 days. The zeocin-resistant stable transfectants were evaluated for the expression of the reporter by adding 100 μM lucerfin (Promega® #E1603®) to the growth medium and by assaying the luciferase activity on a TopCount® scintillation counter (Packard Model #C384V00). The Rat-1 cell clones expressing both zeocin resistance and lucerifase activity controlled by mPer1 were serum-shock synchronized with 50% horse serum [HS (Gibco® #16050-122)] and the activity of the circadian reporter was evaluated. The P2C4 clone of Mper1-luc Rat-1 fibroblasts was selected to test the compound.
Mper1-luc Rat-1 (P2C4) fibroblasts at 40-50% of confluence, obtained according to the protocol described above, were plated out onto 96-well opaque tissue culture plates (Perkin Elmer® #6005680). The cultures are maintained in growth medium supplemented with 100 μg/ml of zeocin (Invitrogen #45-0430) until they reach 100% of confluence (48-72 h). The cultures were then synchronized with 100 μl of synchronization medium [EMEM (Cellgro #10-010-CV); 100 I.U./ml of penicillin-streptomycin (Cellgro #30-001-C1); 50% HS (Gibco #16050-122)] for 2 hours at 37° C. and under 5% CO2. After synchronization, the cultures were rinsed with 100 μl of EMEM (Cellgro #10-010-CV) for 10 minutes at ambient temperature. […]
The period analysis was performed either by determining the interval between the relative light emission minima over several days or by Fourier transform. […] The data were analyzed by adjusting a hyperbolic curve to the data expressed as change of period (y-axis) as a function of the concentration of the test compound (x-axis) in the XLfit™ software and the CE Delta (t+1 h) was interpolated from this curve.
Background: A reporter such as luciferase makes a cellular process visible.

Results on one compound are retold here after patent US8455491B2, “6-cycloamino-3-(pyridazin-4-yl)imidazo[1,2-b]pyridazine and derivatives and pharmaceutical compositions comprising the same” (Sanofi, priority 2007, dated 2013).

T1 sequence (P48730 whole entry): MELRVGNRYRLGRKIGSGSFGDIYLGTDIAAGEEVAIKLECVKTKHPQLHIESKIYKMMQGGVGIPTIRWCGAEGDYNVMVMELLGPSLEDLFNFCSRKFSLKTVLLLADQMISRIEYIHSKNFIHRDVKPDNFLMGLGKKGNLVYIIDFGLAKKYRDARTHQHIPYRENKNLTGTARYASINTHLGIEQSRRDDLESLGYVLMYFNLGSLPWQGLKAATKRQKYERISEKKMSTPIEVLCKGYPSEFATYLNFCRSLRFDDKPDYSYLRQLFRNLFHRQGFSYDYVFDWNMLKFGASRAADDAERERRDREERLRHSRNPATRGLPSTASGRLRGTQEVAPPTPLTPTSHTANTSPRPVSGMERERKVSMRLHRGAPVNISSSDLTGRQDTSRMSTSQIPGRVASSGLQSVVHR

`CN1CCN(c2ccc3nc(-c4ccc(F)cc4)c(-c4ccnnc4)n3n2)CC1` [compound 5, 2-(4-fluorophenyl)-6-(4-methylpiperazin-1-yl)-3-pyridazin-4-yl-imidazo[1,2-b]pyridazine] showed an IC50 against human CK1 delta of 0.041 to 0.056 µM. The “CE Delta (t + 1 h)” value in assay [1] stood at 5 nM.

The IC50 is the concentration at which inhibition is half-maximal. A low value points to inhibition by little substance.
